# From patent US20110014164A1, “EFFICIENT INDUCTION OF PLURIPOTENT STEM CELLS USING SMALL MOLECULE COMPOUNDS” (PRESIDENT AND FELLOWS OF HARVARD COLLEGE, priority 2008, published 2011)
# pEC50: −log10 of the molar value.
# Experiments:
# [1] = test system: iPS-m cell lines; experiment: Karyotype (chromosome) analysis of iPS-m cell lines induced by VPA treatment; type: cell-based, mouse
# Text: Supplementary FIG. 4. Chromosome analysis of iPS-m cells. […] Shown here is a representative chromosome analysis image from iPS-m84.
# (§1) Therefore, VPA partially reprograms MEFs towards more ES cell-like.
# [2] = test system: human BJ and NHDF cells infected by Oct4 and Sox2; experiment: iPS induction in 2-factor (Oct4, Sox2) infected human fibroblasts; type: cell-based; conditions: both with VPA treatment
# Text: b. In the published reprogramming protocol, infected human fibroblasts are typically cultured in fibroblast media first, then reseeded on feeders and switched to hES cell media about a week post-infection. In the modified protocol, human fibroblasts were replated immediately after infection, treated with VPA in hES media, and subsequently cultured in hES media.
# c. The efficiency of iPS colony induction by 3 factors (Oct4, Sox2 and Klf4) and 2 factors (Oct4 and Sox2) with VPA treatment are plotted. Each dot represents one experiment; each bar represents the average for each condition.
# Encouraged by the more efficient 3-factor reprogramming with VPA treatment, we explored the possibility of eliminating some of the transcription factors. The modified induction method with VPA treatment (FIG. 9b) was applied to human BJ and NHDF cells infected by different 2-factor combinations, and AP^+ iPS colonies were identified about 1 month post-infection in fibroblasts infected by Oct4 and Sox2. Karyotypically normal iPS cell lines (Table 2) were established from 2-factor infected human fibroblasts. On average, between 1 and 5 iPS lines were successfully established out of every 100,000 BJ or NHDF cells infected by Oct4 and Sox2 (FIG. 9c). […] The efficiency of reprogramming by 2 factors, however, was ˜100 fold lower than that by 3 factors both with VPA treatment. […]
# [3] = test system: MEFs infected with Oct4, Sox2, Klf4 (but no c-Myc); experiment: Reprogramming efficiency of 3-factor infected Oct4-GFP MEFs, FACS analysis; type: cell-based, mouse; conditions: 2 mM for a week; FACS 10 days post-infection; 3-factor infected MEFs
# Experimental: FIG. 2(a) MEFs infected with Oct4, Sox2, Klf4 (but no c-Myc) were treated with 5′-azaC (2 μM) or VPA (2 mM) for a week, the percentage of Oct4-GFP positive cells induced was measured through FACS analysis at 10 days post-infection, and compared to infected MEFs without treatment. n=4 for each condition.
# (§2) Retroviral introduction of c-Myc could cause tumorigenecity in cells derived from the iPS cells thus generated^2. […] Similar low efficiency was also reported for induction of iPS cells from mouse fibroblasts without c-Myc^24. We tested whether treating the cells with 5′-azaC or VPA improves the efficiency of iPS colony formation without the need for c-Myc. MEFs were first infected with Oct4, Sox2 and Klf4, then treated with 5′-azaC or VPA for a week starting 1 day post-infection. […] Consistent with the FACS data, a 30-40 fold increase of GFP positive colonies was observed compared to control MEFs without treatment (FIG. 2c). This allowed for picking of iPS colonies within two weeks post-infection, sooner than the typical ˜30 days post-infection or later without chemical treatment^13, 24.
# Moloney-based retroviral vector (pMXs) containing the murine complementary DNAs of Oct4, Sox2, c-Myc, and Klf4 were obtained from Addgene^1. […]
# [4] = Effect of VPA treatment on cell cycles; type: cell-based
# Text: as §1
# [5] = test system: MEFs infected with Oct4, Sox2 and Klf4; experiment: GFP positive iPS colony number in 3-factor infected MEFs; type: cell-based, mouse
# Text: FIG. 2(c) Representative pictures at 16 days post-infection showing a significant increase of GFP positive iPS colonies in 3-factor infected MEFs with VPA treatment compared to non-treated control.
# as §2
# For the generation of mouse iPS cells, infected MEFs were cultured in mouse ES cell media until iPS colonies were ready to be picked. In some experiments, knockout serum replacement was used instead of the Hyclone FBS in the mouse ES cell media, which appeared to accelerate the reprogramming process, consistent with a recent report^26. […]
# [6] = test system: MEFs infected with the four factors (Oct4, Sox2, Klf4 and c-Myc); experiment: cells; type: cell-based, mouse; conditions: Mus musculus; 4-factor infected MEFs; dose response; read-out: EC50 of reprogramming efficiency (percentage of Oct4-GFP positive cells induced)
smiles,measurement,setting,value
"CCCC(CCC)C(=O)O [VPA, valproic acid]",iPS-m cell lines with normal karyotypes,"[1]; iPS-m81, 82, 83 and 84 induced by VPA treatment",Three out of four
same,genetic changes at the level of chromosomal abnormalities,[1]; iPS-m cell lines induced with VPA (Table 1),Nor does VPA treatment cause detectable genetic changes
same,efficiency of reprogramming by 2 factors lower than by 3 factors,[2],~100 fold
same,improvement of reprogramming efficiency,[3],50 fold
same,effect on cell cycles,[4],does not accelerate cell cycles
same,increase of GFP positive colonies compared to control MEFs without treatment,[5],30-40 fold
same,pEC50,[6],2.72
